In patent US20040077580A1, “Antisense modulation of PI3K P85 Expression” (priority 2000, published 2004):
Strand notation (5' to 3'): a small letter for the sugar, then the base; units joined by * are phosphorothioate-linked, units joined directly phosphodiester-linked; [ ] holds rarer units or linkages, { } end groups; capitals alone tell only the bases. e = 2'-O-(2-methoxyethyl) (MOE); [5mC] = 5-methylcytosine; d = 2'-deoxy (DNA)

Test system: human PI3K p85 RNA
Test: Inhibition of human PI3K p85 mRNA levels by antisense oligonucleotides, real-time quantitative PCR
Assay type: cell-based
Conditions: oligonucleotide 150 nM
Procedure: Cells were harvested 16 hours after oligonucleotide treatment.
Poly(A)+ mRNA was isolated according to Miura et al., Clin. Chem., 1996, 42, 1758-1764. Other methods for poly(A)+ mRNA isolation are taught in, for example, Ausubel, F. M. et al., Current Protocols in Molecular Biology, Volume 1, pp. 4.5.1-4.5.3, John Wiley & Sons, Inc., 1993. […] 60 μL lysis buffer (10 mM Tris-HCl, pH 7.6, 1 mM EDTA, 0.5 M NaCl, 0.5% NP-40, 20 mM vanadyl-ribonucleoside complex) was added to each well, the plate was gently agitated and then incubated at room temperature for five minutes. 55 μL of lysate was transferred to Oligo d(T) coated 96-well plates (AGCT Inc., Irvine Calif.). Plates were incubated for 60 minutes at room temperature, washed 3 times with 200 μL of wash buffer (10 mM Tris-HCl pH 7.6, 1 mM EDTA, 0.3 M NaCl). After the final wash, the plate was blotted on paper towels to remove excess wash buffer and then air-dried for 5 minutes. 60 μL of elution buffer (5 mM Tris-HCl pH 7.6), preheated to 70° C. was added to each well, the plate was incubated on a 90° C. hot plate for 5 minutes, and the eluate was then transferred to a fresh 96-well plate.
PI3K p85 probes and primers were designed to hybridize to the human PI3K p85 sequence, using published sequence information (GenBank accession number M61906, incorporated herein as SEQ ID NO: 1).
Target sites are indicated by nucleotide numbers, as given in the sequence source reference (Genbank accession no. M61906), to which the oligonucleotide binds. All compounds in Table 1 are oligodeoxynucleotides with phosphorothioate backbones (internucleoside linkages) throughout. […] Data are averages from two experiments. If present, “N.D.” indicates “no data”.
In accordance with the present invention, a second series of oligonucleotides targeted to human PI3K p85 were synthesized. Target sites are indicated by nucleotide numbers, as given in the sequence source reference (Genbank accession no. M61906), to which the oligonucleotide binds.
Cytidine residues in the 2′-MOE wings are 5-methylcytidines.
Data were obtained by real-time quantitative PCR as described in other examples herein and are averaged from two experiments. If present, “N.D.” indicates “no data”.

[1] = phosphorothioate oligodeoxynucleotides, averages from two experiments
[2] = chimeric phosphorothioate oligonucleotides with 2′-MOE wings and deoxy gap, averaged from two experiments

Row | Substance | % Inhibition of PI3K p85 mRNA levels [1] [%] | % Inhibition of PI3K p85 mRNA levels [2] [%]
1 | 27999 (antisense CTTTGTTTCGGTTGCTGC; DNA, all phosphorothioate, methylation of C not given here) [compound 27999] | 36 | –
2 | 28011 (antisense GACGTGCCTTTCTGCTAC; DNA, all phosphorothioate, methylation of C not given here) [compound 28011] | 28 | –
3 | 28052 (antisense eA*eT*eT*e[5mC]*dT*dC*dC*dC*dA*dA*dA*dG*dC*dG*eT*e[5mC]*e[5mC]*e[5mC]) [compound 28052] | – | 55
4 | 28053 (antisense eT*eT*e[5mC]*eT*dG*dG*dC*dA*dC*dT*dT*dT*dC*dT*eA*eT*eG*eA) [compound 28053] | – | 0
5 | 28034 (antisense eT*eT*e[5mC]*eA*dA*dG*dT*dC*dT*dT*dC*dT*dT*dC*e[5mC]*eA*eA*eT) [compound 28034] | – | 28
6 | 28007 (antisense AAAGAAGGGATAAGCACT; DNA, all phosphorothioate, methylation of C not given here) [compound 28007] | 7 | –
7 | 28006 (antisense ATCAGACTGGAGAGGAGC; DNA, all phosphorothioate, methylation of C not given here) [compound 28006] | 27 | –
8 | 28030 (antisense eA*eT*eT*eT*dC*dC*dT*dG*dG*dG*dA*dT*dG*dT*eG*e[5mC]*eG*eG) [compound 28030] | – | 74
9 | 28020 (antisense eA*eA*eT*eT*dC*dT*dG*dC*dC*dA*dG*dG*dT*dT*eG*e[5mC]*eT*eG) [compound 28020] | – | 12
10 | 27991 (antisense CCGCTCTTGGGTCTGGCA; DNA, all phosphorothioate, methylation of C not given here) [compound 27991] | 71 | –
11 | 28009 (antisense CCAGGCTAAACCAGGCTG; DNA, all phosphorothioate, methylation of C not given here) [compound 28009] | 57 | –
12 | 27980 (antisense AATTCTGCCAGGTTGCTG; DNA, all phosphorothioate, methylation of C not given here) [compound 27980] | 0 | –
13 | 27979 (antisense TTCAATGGCTTCCACGAG; DNA, all phosphorothioate, methylation of C not given here) [compound 27979] | 6 | –
14 | 28027 (antisense eT*eT*eA*eT*dT*dC*dA*dT*dA*dC*dC*dG*dT*dT*eG*eT*eT*eG) [compound 28027] | – | 45
15 | 28025 (antisense eG*eT*eT*e[5mC]*dA*dT*dT*dC*dC*dA*dT*dT*dC*dA*eG*eT*eT*eG) [compound 28025] | – | 22
16 | 28028 (antisense eA*eT*eT*e[5mC]*dA*dG*dC*dA*dT*dT*dT*dT*dG*dT*eA*eA*eG*eG) [compound 28028] | – | 0
17 | 28046 (antisense eA*eT*e[5mC]*eA*dG*dA*dC*dT*dG*dG*dA*dG*dA*dG*eG*eA*eG*e[5mC]) [compound 28046] | – | 32
18 | 28038 (antisense eG*eT*e[5mC]*eT*dT*dC*dA*dG*dT*dG*dT*dT*dT*dT*e[5mC]*eA*eT*eT) [compound 28038] | – | 0
19 | 28039 (antisense e[5mC]*eT*eT*eT*dG*dT*dT*dT*dC*dG*dG*dT*dT*dG*e[5mC]*eT*eG*e[5mC]) [compound 28039] | – | 46
20 | 27983 (antisense GCTTGAAGAAATGTTTTA; DNA, all phosphorothioate, methylation of C not given here) [compound 27983] | 0 | –
21 | 28026 (antisense eA*eG*eT*eA*dG*dG*dT*dT*dT*dT*dG*dG*dT*dG*eG*eT*eT*eT) [compound 28026] | – | 54
22 | 27994 (antisense TTCAAGTCTTCTTCCAAT; DNA, all phosphorothioate, methylation of C not given here) [compound 27994] | 15 | –

Row | Substance | % Inhibition of PI3K p85 mRNA levels [1] [%] | % Inhibition of PI3K p85 mRNA levels [2] [%]
23 | 28004 (antisense ACATTGAGGGAGTCGTTG; DNA, all phosphorothioate, methylation of C not given here) [compound 28004] | 0 | –
24 | 27989 (antisense ACCACAGAACTGAAGGTT; DNA, all phosphorothioate, methylation of C not given here) [compound 27989] | 0 | –
25 | 27997 (antisense TTGCCCAACCACTCGTTC; DNA, all phosphorothioate, methylation of C not given here) [compound 27997] | 55 | –
26 | 27978 (antisense GCTTCCTGTCCATCACTG; DNA, all phosphorothioate, methylation of C not given here) [compound 27978] | 29 | –
27 | 28000 (antisense CCTGTTTACTGCTCTCCC; DNA, all phosphorothioate, methylation of C not given here) [compound 28000] | 20 | –
28 | 28029 (antisense eA*e[5mC]*e[5mC]*eA*dC*dA*dG*dA*dA*dC*dT*dG*dA*dA*eG*eG*eT*eT) [compound 28029] | – | 57
29 | 27996 (antisense TCAACTTCTTTTGCCGAA; DNA, all phosphorothioate, methylation of C not given here) [compound 27996] | 38 | –
30 | 28031 (antisense e[5mC]*e[5mC]*eG*e[5mC]*dT*dC*dT*dT*dG*dG*dG*dT*dC*dT*eG*eG*e[5mC]*eA) [compound 28031] | – | 15
31 | 28042 (antisense e[5mC]*eT*eT*eT*dA*dC*dT*dT*dC*dG*dC*dC*dG*dT*e[5mC]*e[5mC]*eA*e[5mC]) [compound 28042] | – | 0
32 | 28045 (antisense eG*e[5mC]*e[5mC]*e[5mC]*dT*dT*dT*dG*dC*dT*dT*dT*dC*dC*eA*eG*eA*eG) [compound 28045] | – | 0
33 | 28033 (antisense eA*eT*e[5mC]*e[5mC]*dT*dT*dT*dG*dT*dA*dT*dT*dT*dC*eT*eT*eT*e[5mC]) [compound 28033] | – | 46
34 | 28051 (antisense eG*eA*e[5mC]*eG*dT*dG*dC*dC*dT*dT*dT*dC*dT*dG*e[5mC]*eT*eA*e[5mC]) [compound 28051] | – | 53
35 | 27988 (antisense ATTCAGCATTTTGTAAGG; DNA, all phosphorothioate, methylation of C not given here) [compound 27988] | 1 | –
36 | 28037 (antisense eT*eT*eG*e[5mC]*dC*dC*dA*dA*dC*dC*dA*dC*dT*dC*eG*eT*eT*e[5mC]) [compound 28037] | – | 28
37 | 28054 (antisense e[5mC]*e[5mC]*eT*eT*dC*dA*dG*dC*dA*dA*dA*dA*dC*dA*eA*eA*eA*e[5mC]) [compound 28054] | – | 0
38 | 28002 (antisense CTTTACTTCGCCGTCCAC; DNA, all phosphorothioate, methylation of C not given here) [compound 28002] | 41 | –
39 | 28017 (antisense eA*eT*e[5mC]*eT*dT*dC*dT*dT*dC*dT*dC*dT*dT*dT*e[5mC]*e[5mC]*eT*eT) [compound 28017] | – | 59
40 | 27984 (antisense GGCTGCTGAGAATCTGAA; DNA, all phosphorothioate, methylation of C not given here) [compound 27984] | 22 | –
41 | 27985 (antisense GTTCATTCCATTCAGTTG; DNA, all phosphorothioate, methylation of C not given here) [compound 27985] | 13 | –
42 | 28008 (antisense CTGCCTCTCTCTCCTCCG; DNA, all phosphorothioate, methylation of C not given here) [compound 28008] | 0 | –
43 | 28010 (antisense TGTCTGGGTCCACCGTGC; DNA, all phosphorothioate, methylation of C not given here) [compound 28010] | 55 | –
